Measured values as given in patent US20180028478A1, “ANTIVIRAL COMPOSITIONS DIRECTED AGAINST THE NUCLEOPROTEIN OF INFLUENZA VIRUSES” (priority 2011, published 2018).
Values joined by “and” are separate entries in the source; they are usually repeats but may differ in a detail not shown here. Identical values can stand only once. Like-named read-outs stand apart in the source and are kept apart here.

Assays:
Influenza A/WSN/33 virus = assay: microbe, parasite or virus in culture; assay type: cell-based, Influenza A/WSN/33 (H1N1); conditions: for IC50: Influenza A virus, WSN, MDCK, read-out: IC50 decrease × 10 viral titer/control (n = 2)
Influenza A/PR8/34 virus = test system: Influenza A/PR8/34 virus; design: species or system Balb/C mice; conditions: mouse, in vivo
H3N2 virus A/Udorn = conditions: MTT 24 h; A/Udorn MOI 10^−1; 100 μM

## COc1ccc2cc(C(C)C(=O)O)ccc2c1 (stereo not shown) [Naproxen]
Influenza A/WSN/33 virus
  IC10 decrease × 10 viral titer/control (n = 2): ~50 μM
  decrease of viral titers with concentration: the greater the concentration in Naproxen, the quicker the decrease of the viral titers
  viral titer decrease, Naproxen vs Tamiflu: viral titer decreases similarly
Influenza A/WSN/33 virus; 48 h
  IC50: ~10 µM
Influenza A/PR8/34 virus
  weight loss: 19%
Influenza A/PR8/34 virus; ip
  decrease factor of viral titer in lungs vs untreated infected controls: ~42 factor
H1N1 WSN strain
  infectious outbreaks in the cell layer and dead cells: reduced the number and the size of the infectious outbreaks
  localisation of nucleoprotein: has not modified the localisation of nucleoprotein
H3N2 virus A/Udorn
  Protection %: 85 ± 2%

## CCOC(=O)C1=C[C@@H](OC(CC)CC)[C@H](NC(C)=O)[C@@H](N)C1 [Tamiflu, oseltamivir]
Influenza A/WSN/33 virus
  viral titer decrease, Naproxen vs Tamiflu: viral titer decreases similarly
Influenza A/PR8/34 virus
  decrease factor of viral titer in lungs vs untreated infected controls: ~100 factor

## O=C(O)c1ccc(C=Nn2c(S)nnc2-c2ccc(Cl)cc2Cl)cc1 [compound 59]
Influenza A/WSN/33 virus
  IC10 decrease × 10 viral titer/control (n = 2): ~30 μM
Influenza A/WSN/33 virus; 50 μM
  Viral titer Pfu/ml MDCK cells: 5.5 ± 2.5 × 10^5 Pfu/ml
Influenza A/WSN/33 virus; 24 h
  IC50: ~5 µM

## Cc1ccc(-c2nnc(S)n2/N=C/c2ccc(C(=O)O)cc2)cc1 [compound 72]
Influenza A/WSN/33 virus
  IC10 decrease × 10 viral titer/control (n = 2): ~20 μM and ~35 μM
Influenza A/WSN/33 virus; 50 μM
  Viral titer Pfu/ml MDCK cells: 7.6 ± 4.0 × 10^5 Pfu/ml and 3.9 ± 1.6 × 10^6 Pfu/ml
Influenza A/WSN/33 virus; 24 h
  IC50: ~5 µM

## COc1ccc(-c2nnc(S)n2N=Cc2ccc(C(=O)O)cc2)cc1 [compound 88]
Influenza A/WSN/33 virus
  IC10 decrease × 10 viral titer/control (n = 2): No effect
Influenza A/WSN/33 virus; 5 μM
  Viral titer Pfu/ml MDCK cells: 1-4 × 10^7 Pfu/ml
